Where no end group is shown, it is not given here.
Tested on: drug-resistant Mycobacterium tuberculosis
Test: Mycobacterium tuberculosis assay
Format: cell-based

Substance	inhibition of the growth of Mycobacterium tuberculosis [%]
Leu-Val-Val-Tyr-Pro-Trp-Thr-Gln-Arg-OH (LVVYPWTQR-OH) [Peptide 1]	100
Phe-Glu-Trp-Thr-Pro-Gly-Tyr-Trp-Gln-Pro-Tyr-Ala-Leu-Pro-Leu-OH (FEWTPGYWQPYALPL-OH) [Peptide 2]	100

— patent US20100204135A1, “USE OF LVV-HEMORPHIN-6 AND OPTIONALLY AF12198 AS THERAPEUTIC AGENT(S)” (priority 2007, published 2010)
